The record followed here is patent US20150051202A1, “TRIAZOLOPYRAZINE DERIVATIVES” (Merck Patent GmbH, priority 2012, published 2015).

Each structure is given as a SMILES string.

The target in one test is T1, SYK (Homo sapiens, UniProt P43405).
T1 construct: purchased BPS Bioscience, CA, USA
Briefly: SYK enzyme assay (Flash plate assay / Caliper mobility shift assay). Format: biochemical. The note with it: for SYK (enzyme assay) % at 3 μM: 100% corresponds to zero effect, −50% corresponds to IC50. As to the method: The kinase assay is performed either as 384-well Flashplate assay (for e.g. Topcount measurement) or as 384-well Image-Flashplate assay (for LEADseeker measurement).
2.5 nM SYK, 400 nM Biotin-Aha-Aha-[…]
and 10 μM ATP (spiked with 0.3 μCi 33P-ATP/well) are incubated in a total volume of 50 μl (60 mM Hepes, 10 mM MgCl2, 1.2 mM Dithiothreitol, 0.02% Brij35, 0.1% BSA, pH 7.5) with or without test compound for 1 hours at 30° C. The reaction is stopped with 25 μl 200 mM EDTA. After 30 Min at 30° C. the liquid is removed and each well washed thrice with 100 μl 0.9% sodium chloride solution. Non-specific reaction is determined in presence of 0.1 μM Staurosporine. Radioactivity is measured with Topcount (when using Flashplates) or with LEADseeker (when using Image-Flashplates) respectively. Results (e.g. IC50-values) are calculated with program tools provided by the IT-department (e.g. Symyx Assay Explorer, Genedata Screener).
Enzymatic Assays Using the Caliper LifeSciences Technology
The assays described here are performed on the Caliper Life Sciences LC3000 system This technology provides data on enzyme activity via measurement of the relative amounts of phosphorylated or unphosphorylated fluorescently labelled substrate peptide at the end of an enzymatic reaction.
These different states of peptide are resolved by applying a potential difference across the sample. The presence of the charged phosphate group on the product (as opposed to the substrate) causes a different peptide mobility between the two peptides. This is visualized by excitation of the fluorescent label on the substrate and product peptides and represented as peaks within the analysis software.
In order to measure inhibitor activity of kinase inhibitors on this technology, a TTP Mosquito liquid handling instrument is used to place 0.25 ul of the appropriate concentration of inhibitor in 100% DMSO (for a dose response curve calculation) into each well of a 384-well plate. To this reaction components are added to a final volume of 25 ul. The table below indicates the sequences and concentrations for the assays described in this report. Standard components are 1 mM DTT (Sigma, D0632), 1 mM MgCl2 (Sigma, M1028), 100 mM HEPES pH 7.5 (Calbiochem, 391338), 0.015% Brij-35 (Sigma, B4184).
The reaction is incubated for 90 min at 25 C, and then stopped by the addition of 70 ul of Stop buffer (100 mM HEPES pH 7.5, 0.015% Brij-35, 10 mM EDTA (Sigma, E7889)).
The plate is read on a Caliper LC 3000 in an Off-Chip mobility shift assay format, on a 12-sipper chip. Unphosphorylated substrate and phosphorylated product peptide resolve as separate peaks allowing direct measurement of percentage of conversion of substrate to product. The percent conversion can be plotted against concentration of inhibitor to produce a sigmoidal dose response curve, from which an IC50 can be calculated using GeneData Condoseo or a similar product.

In the next test the target is GCN2 (Homo sapiens, UniProt Q9P2K8). Kind of test: GCN2 enzyme assay (TR-FRET Lanthascreen, GFP-eIF2alpha substrate). Format: biochemical. From the text: GCN2: Assay Principle & Conditions
GCN2, sequence (Q9P2K8 whole entry): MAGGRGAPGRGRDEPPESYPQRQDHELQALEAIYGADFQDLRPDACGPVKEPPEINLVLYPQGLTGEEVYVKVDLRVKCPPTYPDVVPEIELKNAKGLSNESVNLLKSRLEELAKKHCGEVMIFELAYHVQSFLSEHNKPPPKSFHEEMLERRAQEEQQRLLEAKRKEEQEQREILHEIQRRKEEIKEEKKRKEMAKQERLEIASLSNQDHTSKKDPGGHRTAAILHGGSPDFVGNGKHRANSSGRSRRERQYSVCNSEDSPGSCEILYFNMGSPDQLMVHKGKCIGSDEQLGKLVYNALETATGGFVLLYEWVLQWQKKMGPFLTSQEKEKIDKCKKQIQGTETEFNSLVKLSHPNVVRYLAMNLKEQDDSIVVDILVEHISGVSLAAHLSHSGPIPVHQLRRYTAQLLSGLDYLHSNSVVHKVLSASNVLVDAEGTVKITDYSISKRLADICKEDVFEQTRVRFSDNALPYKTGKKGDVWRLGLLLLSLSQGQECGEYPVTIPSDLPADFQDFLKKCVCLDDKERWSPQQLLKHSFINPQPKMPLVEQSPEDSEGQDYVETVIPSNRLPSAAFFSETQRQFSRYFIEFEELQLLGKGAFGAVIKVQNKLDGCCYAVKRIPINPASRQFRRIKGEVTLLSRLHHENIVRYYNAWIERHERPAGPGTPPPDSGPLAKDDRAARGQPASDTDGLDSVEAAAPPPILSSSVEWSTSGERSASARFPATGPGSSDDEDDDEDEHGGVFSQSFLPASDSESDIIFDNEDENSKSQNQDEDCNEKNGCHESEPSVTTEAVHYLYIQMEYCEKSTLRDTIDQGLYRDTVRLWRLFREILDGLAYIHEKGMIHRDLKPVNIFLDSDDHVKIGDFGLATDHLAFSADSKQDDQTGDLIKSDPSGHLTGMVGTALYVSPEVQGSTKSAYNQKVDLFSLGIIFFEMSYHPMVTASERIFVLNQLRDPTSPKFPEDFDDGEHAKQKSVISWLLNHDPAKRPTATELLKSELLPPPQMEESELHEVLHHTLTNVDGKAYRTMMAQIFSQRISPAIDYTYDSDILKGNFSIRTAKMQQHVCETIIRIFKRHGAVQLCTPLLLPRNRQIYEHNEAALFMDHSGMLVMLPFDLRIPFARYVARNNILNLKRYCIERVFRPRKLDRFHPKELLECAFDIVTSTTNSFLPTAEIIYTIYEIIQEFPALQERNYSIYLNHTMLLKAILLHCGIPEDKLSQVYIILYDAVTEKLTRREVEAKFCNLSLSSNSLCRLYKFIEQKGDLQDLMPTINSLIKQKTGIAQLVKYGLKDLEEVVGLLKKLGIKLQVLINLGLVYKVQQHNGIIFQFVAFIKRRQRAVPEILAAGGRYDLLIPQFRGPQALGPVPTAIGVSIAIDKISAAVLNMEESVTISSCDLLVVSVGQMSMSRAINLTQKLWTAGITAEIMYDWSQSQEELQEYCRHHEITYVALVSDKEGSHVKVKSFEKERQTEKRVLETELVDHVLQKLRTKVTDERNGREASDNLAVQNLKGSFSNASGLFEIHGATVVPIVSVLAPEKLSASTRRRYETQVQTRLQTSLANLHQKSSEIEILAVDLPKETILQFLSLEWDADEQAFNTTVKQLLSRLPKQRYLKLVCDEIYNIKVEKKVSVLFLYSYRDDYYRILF
This assay can quantificate the activity of the serin kinase GCN2 (general control non-derepressible-2).
This kinase is involved in the stress metabolism of cells. It is activated upon starvation (amino acid depletion). Its natural substrate is eIF2a (eukaryotic initiation factor 2 alpha subunit), a translation factor, which gets activated (phosphorylated) by GCN2 in case of an amino acid bottleneck in the cells. This in turn leads to a halt of the protein synthesis. Inhibition of GCN2 results in stopping this mechanism: The cell can not stop protein production upon “starvation” stress.
The assay is run in two steps: the enzymatic reaction and the detection step. In the first step GCN2 is incubated with 10 μM ATP and 80 nM of the GFP-labelled substrate eIF2alpha at room temperature.
The enzymatic reaction is stopped by addition of EDTA. The amount of phosphorylated eIF2alpha is determined by TR-FRET (Lanthascreen): A complex is formed consisting of antibody and GFP labelled phospho-eIF2a, which allows a FRET upon exitation at 340 nm.
Final Concentrations in the Enzymatic Reaction • Hepes, pH 7.0 50 mM • MgCl2 10 mM • MnCl2 5 mM • BSA 0.1% • DMSO 1% • ATP 10 uM • DTT 2 mM • GFP-eIF2a 80 nM (substrate) • GCN2 30 nM (enzyme)
On the technique in general: TR-FRET usually uses a lanthanide donor and a delayed reading to cut background.

What is called IC50 is the concentration at which inhibition is half-maximal. Turning to `O=C1Cc2cc(Nc3nc4cncc(-c5cnn(CCN6CCOCC6)c5)n4n3)ccc2N1` [Compound A49, 5-{5-[1-(2-morpholin-4-yl-ethyl)-1H-pyrazol-4-yl]-[1,2,4]triazolo[1,5-a]pyrazin-2-ylamino}-1,3-dihydro-indol-2-one], the “SYK (enzyme assay) % at 3 μM” value at SYK is −19@3%. The IC50 at GCN2 lay within 1 to 5 µM.
As to `Cc1cc(Nc2nc3cncc(-c4cnn(CCN5CCOCC5)c4)n3n2)ccc1N1CCN(C)CC1` [Compound A50, [3-methyl-4-(4-methyl-piperazin-1-yl)-phenyl]-{5-[1-(2-morpholin-4-yl-ethyl)-1H-pyrazol-4-yl]-[1,2,4]triazolo[1,5-a]pyrazin-2-yl}-amine], the “SYK (enzyme assay) % at 3 μM” value at SYK is reported as −32@3%. On GCN2, this compound yielded an IC50 of less than 1 µM.
Regarding `Cc1cc(Nc2nc3cncc(-c4cnn(CCC(C)C)c4)n3n2)ccc1N1CCN(C)CC1` [Compound A51, {5-[1-(3-methyl-butyl)-1H-pyrazol-4-yl]-[1,2,4]triazolo[1,5-a]pyrazin-2-yl}-[3-methyl-4-(4-methyl-piperazin-1-yl)-phenyl]-amine], the IC50 on SYK and at GCN2 was less than 1 µM each time.
In the case of `CN1C(=O)Cc2cc(Nc3nc4cncc(-c5cnn(CCN6CCOCC6)c5)n4n3)ccc21` [Compound A52, 1-methyl-5-{5-[1-(2-morpholin-4-yl-ethyl)-1H-pyrazol-4-yl]-[1,2,4]triazolo[1,5-a]pyrazin-2-ylamino}-1,3-dihydro-indol-2-one], the “SYK (enzyme assay) % at 3 μM” value on SYK was −32@3%. Also, the 50% inhibitory concentration (IC50) against GCN2 fell in the range of 1 to 5 µM.
With `CN1CCN(c2ccc(Nc3nc4cncc(Nc5cnn(C)c5)n4n3)cc2)CC1` [Compound A53, N2-[4-(4-methyl-piperazin-1-yl)-phenyl]-N5-(1-methyl-1H-pyrazol-4-yl)-[1,2,4] triazolo[1,5-a]pyrazine-2,5-diamine], on SYK, the “SYK (enzyme assay) % at 3 μM” value is −23@3%. On GCN2, this compound showed an IC50 of 1 to 5 µM.
Consider `Cc1ccc(-c2cncc3nc(Nc4ccc(N5CCOCC5)cc4)nn23)o1` [Compound A55, [5-(5-methyl-furan-2-yl)-[1,2,4]triazolo[1,5-a]pyrazin-2-yl]-(4-morpholin-4-yl-phenyl)-amine], for which the IC50 at SYK and on GCN2 was less than 1 µM each time.
Take `c1cc(N2CCOCC2)ccc1Nc1nc2cncc(-c3cnn(CCN4CCOCC4)c3)n2n1` [Compound A56, {5-[1-(2-morpholin-4-yl-ethyl)-1H-pyrazol-4-yl]-[1,2,4]triazolo[1,5-a]pyrazin-2-yl}-(4-morpholin-4-yl-phenyl)-amine]: the half-maximal inhibitory concentration (IC50) on SYK and on GCN2 was 1 to 5 µM throughout.
On to `Cn1cc(-c2cncc3nc(Nc4cccc(C#N)c4)nn23)cn1` [Compound A57, 3-[5-(1-methyl-1H-pyrazol-4-yl)-[1,2,4]triazolo[1,5-a]pyrazin-2-ylamino]-benzonitrile], for which the IC50 lay in the range of 5 to 10 µM on SYK and 1 to 5 µM against GCN2.
On to `O=C1Cc2cc(Nc3nc4cncc(-c5ccc(CN6CCOCC6)s5)n4n3)ccc2N1` [Compound A58, 5-[5-(5-morpholin-4-ylmethyl-thiophen-2-yl)-[1,2,4]triazolo[1,5-a]pyrazin-2-ylamino]-1,3-dihydro-indol-2-one], for which the “SYK (enzyme assay) % at 3 μM” value at SYK is recorded as −34@3%. Moreover, the IC50 on GCN2 was less than 1 µM.
In the case of `Cn1cc(-c2cncc3nc(Nc4ccc5c(c4)OCCO5)nn23)cn1` [Compound A59, (2,3-dihydro-benzo[1,4]dioxin-6-yl)-[5-(1-methyl-1H-pyrazol-4-yl)-[1,2,4]triazolo[1,5-a]pyrazin-2-yl]-amine], the IC50 is 1 to 5 µM at SYK and less than 1 µM on GCN2.
Regarding `Cn1cc(-c2cncc3nc(Nc4ccc(-c5ccncc5)cc4)nn23)cn1` [Compound A60, [5-(1-methyl-1H-pyrazol-4-yl)-[1,2,4]triazolo[1,5-a]pyrazin-2-yl]-(4-pyridin-4-yl-phenyl)-amine], the IC50 at SYK is less than 1 µM; at GCN2 it was 1 to 5 µM.
For `Cn1cc(-c2cncc3nc(Nc4ccc(CN5CCOCC5)cc4)nn23)cn1` [Compound A61, [5-(1-methyl-1H-pyrazol-4-yl)-[1,2,4]triazolo[1,5-a]pyrazin-2-yl]-(4-morpholin-4-ylmethyl-phenyl)-amine] the same measures were 1 to 5 µM and less than 1 µM.
Take `c1cc(N2CCOCC2)ccc1Nc1nc2cncc(-c3ccc(CN4CCOCC4)s3)n2n1` [Compound A62, [5-(5-morpholin-4-ylmethyl-thiophen-2-yl)-[1,2,4]triazolo[1,5-a]pyrazin-2-yl]-(4-morpholin-4-yl-phenyl)-amine]: at SYK, the “SYK (enzyme assay) % at 3 μM” value is reported as −5@3%. At GCN2, this compound had a concentration for half-maximal inhibition (IC50) of less than 1 µM.
Consider `N#Cc1cc(-c2cncc3nc(Nc4ccc(N5CCOCC5)cc4)nn23)ccc1OC1CCOCC1` [Compound A63, 5-[2-(4-morpholin-4-yl-phenylamino)-[1,2,4]triazolo[1,5-a]pyrazin-5-yl]-2-(tetrahydro-pyran-4-yloxy)-benzonitrile], for which, at SYK, the “SYK (enzyme assay) % at 3 μM” value is −30@3%. For the same compound, the IC50 against GCN2 was in the range of 1 to 5 µM.
On to `Cc1cc(Nc2nc3cncc(-c4cnn(C)c4)n3n2)ccc1OC(F)(F)F` [Compound A64, [5-(1-methyl-1H-pyrazol-4-yl)-[1,2,4]triazolo[1,5-a]pyrazin-2-yl]-(3-methyl-4-trifluoromethoxy-phenyl)-amine], for which the IC50 was 1 to 5 µM on SYK and less than 1 µM against GCN2.
The matching figures for `Cc1cc(Nc2nc3cncc(-c4cnn(C)c4)n3n2)ccc1NC(=O)C1CCC1` [Compound A65, cyclobutanecarboxylic acid {2-methyl-4-[5-(1-methyl-1H-pyrazol-4-yl)-[1,2,4]triazolo[1,5-a]pyrazin-2-ylamino]-phenyl}-amide]: 5 to 10 µM and less than 1 µM.
For the compound `Cn1cc(-c2cncc3nc(Nc4ccc(C(=O)N5CCOCC5)cc4)nn23)cn1` [Compound A66, {4-[5-(1-methyl-1H-pyrazol-4-yl)-[1,2,4]triazolo[1,5-a]pyrazin-2-ylamino]-phenyl}-morpholin-4-yl-methanone], the IC50 at SYK is 1 to 5 µM; against GCN2, less than 1 µM.
Take `COc1cc(Nc2nc3cncc(-c4cnn(C)c4)n3n2)ccc1N1CCN(C)CC1` [Compound A67, [3-methoxy-4-(4-methyl-piperazin-1-yl)-phenyl]-[5-(1-methyl-1H-pyrazol-4-yl)-[1,2,4]triazolo[1,5-a]pyrazin-2-yl]-amine]: the concentration for half-maximal inhibition (IC50) on SYK was 1 to 5 µM; against GCN2, less than 1 µM.
The matching figures for `Cc1cc(Nc2nc3cncc(-c4cnn(C)c4)n3n2)ccc1CN1CCOCC1` [Compound A68, (3-methyl-4-morpholin-4-ylmethyl-phenyl)-[5-(1-methyl-1H-pyrazol-4-yl)-[1,2,4]triazolo[1,5-a]pyrazin-2-yl]-amine]: 1 to 5 µM and less than 1 µM.
For `Cc1cc(Nc2nc3cncc(-c4cnn(C)c4)n3n2)ccc1C(=O)NCC1CC1` [Compound A69, N-cyclopropylmethyl-2-methyl-4-[5-(1-methyl-1H-pyrazol-4-yl)-[1,2,4]triazolo[1,5-a]pyrazin-2-ylamino]-benzamide] the same measures were 1 to 5 µM and less than 1 µM.
